Like-named read-outs stand apart in the source and are kept apart here.

In data set [1] the test system is injection de phényl benzoquinone. In words: analgesic activity, phenylbenzoquinone test (Siegmund et al.). The class given is in vivo. Here is the method:
L'activité antalgique a été étudiée selon Siegmund et Coll.
Les composés sont administrés par voie orale 30 minutes avant l'injection de phényl benzoquinone.

The nature of data set [2]: acute oral toxicity (LD50, method of Miller and Tainter). To be noted: in vivo, mouse about 20 g, read-out: DL 50 voie orale. An excerpt: L'étude de la toxicité a été effectuée chez la souris conventionnelle pesant environ 20 grammes..
Les substances ont été administrées par voie orale, la DL 50 est calculée suivant la méthode de L.C. Miller et M.L. Tainter, Proc. Soc. Exper. Biol. Med., 1944, 57, 261.

The test system of data set [3] is oedème provoqué par injection de carragénine dans la patte du rat. As to the kind of experiment: carrageenan-induced paw oedema (Winter, Risley, Nuss). It is filed as in vivo. As to conditions: oral, suspension in tween-water, 2 hours before the test, read-out: ED 50 (dose diminuant de 50 % le volume de la patte). An excerpt: Les propriétés anti-inflammatoires ont été révélées par le test de l'oedème provoqué par injection de carragénine dans la patte du rat selon la technique de C. Winter, E. Risley, et G. Nuss. Proc. Soc. Exper. Biol. Med., 1962, 111, 544-547.
Les produits ont été administrés par voie orale en suspension dans le mélange tween-eau 2 heures avant l'expérimentation.

Data set [4] concerns granulome aux pellets de coton. As to the kind of experiment: cotton pellet granuloma (Meier, Schuler, Desaulles). The class given is in vivo. To be noted: 120 h; dose from which a clear reduction is seen; results read after 5 days; read-out: réduction nette du poids du granulome à partir de. As to the method: Les résultats obtenus sur le granulome aux pellets de coton selon la technique de R. Meier, Schuler et Desaulles - Experientia 1950, 6, 469, permettent de mettre en évidence une réduction nette du poids du granulome à partir de 10 mg/kg pour le F 1920 et le F 2073.
Les résultats sont relevés au bout de 5 jours et aucune modification n'est observée, comparativement aux témoins, en ce qui concerne

Where [5] appears, read: oral, 30 minutes before injection of phenylbenzoquinone, read-out: DE 50 (the source's name).

Regarding `CC(=O)Oc1ccccc1C(=O)O` [Acide acétyl salicylique, reference compound], in data set [1] (po, read-out: DE 50), the ED50 was determined as 100 mg/kg.
As to `CC(/C=C/c1ccc(-c2ccccc2F)cc1)C(=O)O` (stereo not drawn) [Acide trans orthofluorophényl-4' phényl-4 méthyl-2 buten-3 oïque], in data set [1] (setting [5]), the ED50 is 5 mg/kg. Also, the LD50 in data set [2] was 1000 mg/kg.
With `CC(/C=C/c1ccc(-c2ccccc2)cc1)C(=O)O` (stereo not drawn) [F 1920, acide trans p-biphényl-4, méthyl-2 buten-3 oïque], the ED50 amounted to 10 mg/kg in data set [1] (setting [5]) and 25 mg/kg in data set [3]. The LD50 in data set [2] is 500 mg/kg. The minimal effective dose in data set [4] is not below 10 mg/kg.
As for `CC(/C=C/c1ccc(-c2ccccc2Cl)cc1)C(=O)O` (stereo not drawn) [F 2073, acide trans orthochlorophényl-4' phényl-4 méthyl-2 buten-3 oïque], the ED50 in data set [1] (setting [5]) was found to be 7 mg/kg; in data set [3] it was 15 mg/kg. The LD50 in data set [2] is 750 mg/kg. For the same compound, the minimal effective dose in data set [4] was not below 10 mg/kg.
For `O=C(OCC(O)CO)c1ccccc1Nc1ccnc2cc(Cl)ccc12` (stereo not drawn) [Glafénine, reference compound], the ED50 in data set [1] (setting [5]) is 36 mg/kg.

(Values after patent publication EP0020230A2, “p-Biphenyl-4-methyl-2-butenoic acids, process for their preparation, pharmaceutical compositions containing them and their use” (PIERRE FABRE S.A., priority 1979, dated 1980).)
